The record followed here is ChEMBL document CHEMBL4052788, “Pocket detection and interaction-weighted ligand-similarity search yields novel high-affinity binders for Myocilin-OLF, a protein implicated in glaucoma” (Bioorg Med Chem Lett, 2017).

Each structure is given as a SMILES string. pKd: −log10 of the molar value.

Assay [1] addresses T1, Myocilin (Homo sapiens, UniProt Q99972).
T1 sequence (Q99972 whole entry): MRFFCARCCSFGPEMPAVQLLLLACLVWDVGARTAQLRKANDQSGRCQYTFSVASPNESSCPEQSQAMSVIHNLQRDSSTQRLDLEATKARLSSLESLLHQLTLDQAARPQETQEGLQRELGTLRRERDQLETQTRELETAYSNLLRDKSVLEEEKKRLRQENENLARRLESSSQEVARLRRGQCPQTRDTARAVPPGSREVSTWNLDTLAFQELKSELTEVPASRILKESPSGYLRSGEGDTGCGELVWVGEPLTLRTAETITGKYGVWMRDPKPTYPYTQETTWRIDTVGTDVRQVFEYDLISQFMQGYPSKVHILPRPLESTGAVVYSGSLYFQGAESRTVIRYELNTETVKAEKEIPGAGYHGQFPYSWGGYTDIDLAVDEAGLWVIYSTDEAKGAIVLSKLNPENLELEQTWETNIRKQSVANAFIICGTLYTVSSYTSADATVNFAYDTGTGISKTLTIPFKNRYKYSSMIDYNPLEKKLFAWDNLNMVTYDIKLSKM
The assay can be described thus: Binding affinity myocilin-OLF domain (unknown origin) by Sypro Orange dye-based DSF assay. The conditions noted are these: read-out: Kd(app).

For assay [2], the target named is T2, Myocilin (Homo sapiens) (UniProt Q99972).
T2 sequence (whole entry): T1 sequence (Q99972 whole entry)
The assay can be described thus: Binding affinity myocilin-OLF domain (unknown origin) assessed as change in melting temperature by Sypro Orange dye-based DSF assay. (In general: DSF heats the sample and reads unfolding from a dye or from intrinsic fluorescence.)

The target of assay [3] is T2, Myocilin (Homo sapiens). The assay can be described thus: Binding affinity myocilin-OLF domain (unknown origin) assessed as change in melting temperature by SRP assay.
Assay [4] addresses T1, Myocilin. The assay can be described thus: Binding affinity myocilin-OLF domain (unknown origin) by SRP assay.

By pKd is commonly meant −log10 of the Kd, conventionally taken in molar units. The term ΔTm denotes the change in melting temperature against a reference sample. Take `COc1cc(C(=O)C(=O)c2ccc(O)c(OC)c2)ccc1O`: the pKd at Myocilin [1] is 3.52. For the same molecule, at Myocilin (Homo sapiens) [2], the ΔTm came to 0.91 °C. In the same order, the values of `Nc1nc(N)c(/N=N/c2ccc(C(=O)O)cc2)c(N)n1` are 3.72 and 1.78 °C.

On to `O=C(/C=C/c1ccc(O)c(O)c1)c1ccccc1O`, for which the pKd on Myocilin [1] was 7.00. Moreover, on Myocilin (Homo sapiens) [2], the ΔTm worked out at 16.4 °C. Take `CN(C)c1ccc(/C=C/C(=O)c2cc(Cl)ccc2O)cc1`: the pKd on Myocilin [1] was 3.66. Moreover, the ΔTm on Myocilin (Homo sapiens) [2] was 1.5 °C. In the case of `COc1cccc(NC(S)=Nc2ccc(O)cc2)c1`, the ΔTm at Myocilin (Homo sapiens) [2] came to 32 °C. As for `O=C(Nc1ccc(Oc2ccc(NC(=O)Nc3ccc([N+](=O)[O-])cc3)cc2)cc1)Nc1ccc([N+](=O)[O-])cc1`, the pKd on Myocilin [1] is 6.19. In addition, on Myocilin (Homo sapiens) [2], the ΔTm turned out to be 11.2 °C. Turning to `O=c1cc(-c2ccc(O)cc2)oc2cc(O)cc(O)c12` [APIGENIN], the ΔTm on Myocilin (Homo sapiens) [3] is -0.3 °C. The molecule also had a pKd at Myocilin [4] of 4.38.

In the case of `O=C(Cn1ccc(=O)[nH]c1=O)Nc1ccc(C(=O)O)c(O)c1`, the pKd on Myocilin [1] is 3.70. The ΔTm on Myocilin (Homo sapiens) [2] came out at 1.96 °C.

As to `O=C1c2ccccc2C(=O)C1C(c1ccc([N+](=O)[O-])cc1)C1C(=O)c2ccccc2C1=O`, the negative logarithm of the Kd (pKd) at Myocilin [1] was 3.77. Further, the ΔTm at Myocilin (Homo sapiens) [2] stood at 2.02 °C. Turning to `Cc1cc(N(CCCl)CCCl)ccc1/C=N/NC(=O)Cc1cc(=O)oc2cc(O)ccc12`, at Myocilin [1], the pKd is 3.68. Also, the ΔTm at Myocilin (Homo sapiens) [2] was found to be 1.6 °C. As to `O=C1Nc2ccc(I)cc2C1=Cc1cc(Br)c(O)c(Br)c1` [GW305074X], the ΔTm on Myocilin (Homo sapiens) [3] was determined as 0.2 °C. The molecule also showed a pKd on Myocilin [4] of 4.47. In the case of `Cc1ccc(C(C)C)cc1NC(=O)Nc1ccc([N+](=O)[O-])cc1`, at Myocilin [1], the pKd was 4.96. Further, the ΔTm at Myocilin (Homo sapiens) [2] worked out at 6.3 °C.
